Test results: patent US8815900B2, “Compounds and compositions for reducing lipid levels” (CVI Pharmaceuticals Limited, priority 2007, dated 2014)

Tested on: LDLR ligand uptake activity in HepG2 cells
Experiment: DiI-LDL uptake (LDLR ligand uptake activity) in HepG2 cells; note: key: +: slightly increased fluorescent intensity over control; ++: modestly increased fluorescent intensity over control; +++: strongly increased fluorescent intensity over control
Assay type: cell-based, Human
Conditions: 20 hours, B, compound dose ≦ 40 μM
Experimental: HepG2 cells (2×10^5 cells/well) in 24-well culture plates were treated with various compounds at indicated concentrations for 20 hours. The fluorescent 1,1′-dioctadecyl-3,3,3′,3′-tetramethylindocarbocyanin perchlorate (DiI-LDL) (Biomedical Technologies, Stoughton, Mass.) at a concentration of 2 μg/mL was added to cells at the end of treatment. After 4 hours, the medium was removed, cells were washed with cold PBS, and were examined immediately under a fluorescent microscope (Nikon) at 200× amplification. The fluorescent intensity in compound-treated cells was compared to that in untreated control cells. […] In these experiments berberine chloride was used for comparison.

**Q.** How did the “Activity on DiI-LDL uptake” value turn out when `COc1cc2c(cc1OC)[C@H]1[C@@H](C)c3ccc(OC)c(OC)c3CN1CC2` [CRDL, 14R,13S-(+)-corydaline] was run?
**A.** The value was “++”.
